Active and inactive are the calls of the source. No cut-off for these calls is given here.
Legend:
[1] = target: T1, Activin receptor type-1 (Homo sapiens) (UniProt Q04771); test: Inhibition of human wild type partial length ALK2 (C188 to C509 residues) expressed in bacterial expression system at 1 uM by Kinomescan method relative to control
T1 sequence (whole entry): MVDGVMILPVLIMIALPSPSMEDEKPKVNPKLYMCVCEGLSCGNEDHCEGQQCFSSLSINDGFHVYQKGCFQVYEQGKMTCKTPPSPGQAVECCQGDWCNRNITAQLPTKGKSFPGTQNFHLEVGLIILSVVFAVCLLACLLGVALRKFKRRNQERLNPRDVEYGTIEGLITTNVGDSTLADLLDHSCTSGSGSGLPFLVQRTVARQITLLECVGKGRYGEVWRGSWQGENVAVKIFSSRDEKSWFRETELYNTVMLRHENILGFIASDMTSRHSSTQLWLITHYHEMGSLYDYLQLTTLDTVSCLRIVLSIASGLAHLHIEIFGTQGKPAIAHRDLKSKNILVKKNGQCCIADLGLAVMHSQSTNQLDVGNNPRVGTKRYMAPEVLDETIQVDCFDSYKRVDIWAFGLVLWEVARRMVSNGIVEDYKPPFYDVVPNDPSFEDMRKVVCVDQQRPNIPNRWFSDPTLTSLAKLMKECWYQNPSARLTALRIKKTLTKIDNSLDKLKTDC

[2] = target: Bone morphogenetic protein receptor type-1B (Homo sapiens, UniProt O00238); test: Inhibition of human ALK6 at 1 uM by Kinomescan method
Bone morphogenetic protein receptor type-1B, sequence (O00238 whole entry, the tested form may be a part): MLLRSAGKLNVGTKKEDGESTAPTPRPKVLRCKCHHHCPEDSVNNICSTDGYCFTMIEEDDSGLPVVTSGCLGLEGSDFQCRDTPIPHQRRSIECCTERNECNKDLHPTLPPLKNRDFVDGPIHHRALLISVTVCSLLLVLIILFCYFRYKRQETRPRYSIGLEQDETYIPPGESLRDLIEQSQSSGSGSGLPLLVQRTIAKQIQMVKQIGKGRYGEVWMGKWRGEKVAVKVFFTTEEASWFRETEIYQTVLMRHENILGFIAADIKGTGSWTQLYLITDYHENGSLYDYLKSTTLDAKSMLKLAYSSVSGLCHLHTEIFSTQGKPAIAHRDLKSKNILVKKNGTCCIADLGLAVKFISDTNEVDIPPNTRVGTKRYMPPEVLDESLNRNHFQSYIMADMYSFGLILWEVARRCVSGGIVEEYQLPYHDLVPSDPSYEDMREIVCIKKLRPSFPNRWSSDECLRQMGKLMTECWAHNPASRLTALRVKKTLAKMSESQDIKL

[3] = target: Epidermal growth factor receptor (Homo sapiens) (UniProt P00533); test: Inhibition of human wild type partial length EGFR (R669 to V1011 residues) expressed in bacterial expression system at 1 uM by Kinomescan method
Epidermal growth factor receptor (Homo sapiens), sequence (P00533 whole entry, the tested form may be a part): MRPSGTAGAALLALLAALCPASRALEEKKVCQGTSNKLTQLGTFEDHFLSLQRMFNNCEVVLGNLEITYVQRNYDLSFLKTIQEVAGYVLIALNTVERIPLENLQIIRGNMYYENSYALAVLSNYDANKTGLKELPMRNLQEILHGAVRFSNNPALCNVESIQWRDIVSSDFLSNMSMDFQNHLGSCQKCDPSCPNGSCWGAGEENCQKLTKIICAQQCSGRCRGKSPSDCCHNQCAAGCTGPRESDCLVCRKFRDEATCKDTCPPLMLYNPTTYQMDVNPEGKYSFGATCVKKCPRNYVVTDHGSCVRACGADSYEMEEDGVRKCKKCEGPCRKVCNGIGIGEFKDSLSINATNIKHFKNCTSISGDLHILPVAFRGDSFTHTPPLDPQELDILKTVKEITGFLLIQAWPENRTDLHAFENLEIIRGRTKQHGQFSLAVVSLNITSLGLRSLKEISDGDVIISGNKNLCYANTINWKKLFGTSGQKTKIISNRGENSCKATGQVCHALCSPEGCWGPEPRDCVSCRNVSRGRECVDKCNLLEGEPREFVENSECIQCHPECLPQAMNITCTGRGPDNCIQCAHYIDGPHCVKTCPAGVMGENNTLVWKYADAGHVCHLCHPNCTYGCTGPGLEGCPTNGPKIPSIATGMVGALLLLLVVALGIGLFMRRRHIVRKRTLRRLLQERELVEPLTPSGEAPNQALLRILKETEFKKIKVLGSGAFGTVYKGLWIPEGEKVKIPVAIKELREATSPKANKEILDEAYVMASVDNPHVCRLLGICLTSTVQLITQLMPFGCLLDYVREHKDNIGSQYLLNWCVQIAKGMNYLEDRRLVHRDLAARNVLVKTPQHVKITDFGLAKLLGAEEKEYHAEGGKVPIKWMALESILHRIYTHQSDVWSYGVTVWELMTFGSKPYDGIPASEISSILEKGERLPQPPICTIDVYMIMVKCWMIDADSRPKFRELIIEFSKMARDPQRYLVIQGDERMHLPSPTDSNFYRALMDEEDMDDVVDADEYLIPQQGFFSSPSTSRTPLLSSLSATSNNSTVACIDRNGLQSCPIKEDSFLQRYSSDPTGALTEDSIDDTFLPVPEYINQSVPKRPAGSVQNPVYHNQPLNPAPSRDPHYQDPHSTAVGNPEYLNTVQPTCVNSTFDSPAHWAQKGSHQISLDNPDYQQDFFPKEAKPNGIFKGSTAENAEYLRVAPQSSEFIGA

[4] = target: T2, Ephrin type-A receptor 8 (Homo sapiens) (UniProt P29322); test: Inhibition of human wild type partial length EphA8 (Q608 to C920 residues) expressed in bacterial expression system at 1 uM by Kinomescan method
T2 sequence (whole entry): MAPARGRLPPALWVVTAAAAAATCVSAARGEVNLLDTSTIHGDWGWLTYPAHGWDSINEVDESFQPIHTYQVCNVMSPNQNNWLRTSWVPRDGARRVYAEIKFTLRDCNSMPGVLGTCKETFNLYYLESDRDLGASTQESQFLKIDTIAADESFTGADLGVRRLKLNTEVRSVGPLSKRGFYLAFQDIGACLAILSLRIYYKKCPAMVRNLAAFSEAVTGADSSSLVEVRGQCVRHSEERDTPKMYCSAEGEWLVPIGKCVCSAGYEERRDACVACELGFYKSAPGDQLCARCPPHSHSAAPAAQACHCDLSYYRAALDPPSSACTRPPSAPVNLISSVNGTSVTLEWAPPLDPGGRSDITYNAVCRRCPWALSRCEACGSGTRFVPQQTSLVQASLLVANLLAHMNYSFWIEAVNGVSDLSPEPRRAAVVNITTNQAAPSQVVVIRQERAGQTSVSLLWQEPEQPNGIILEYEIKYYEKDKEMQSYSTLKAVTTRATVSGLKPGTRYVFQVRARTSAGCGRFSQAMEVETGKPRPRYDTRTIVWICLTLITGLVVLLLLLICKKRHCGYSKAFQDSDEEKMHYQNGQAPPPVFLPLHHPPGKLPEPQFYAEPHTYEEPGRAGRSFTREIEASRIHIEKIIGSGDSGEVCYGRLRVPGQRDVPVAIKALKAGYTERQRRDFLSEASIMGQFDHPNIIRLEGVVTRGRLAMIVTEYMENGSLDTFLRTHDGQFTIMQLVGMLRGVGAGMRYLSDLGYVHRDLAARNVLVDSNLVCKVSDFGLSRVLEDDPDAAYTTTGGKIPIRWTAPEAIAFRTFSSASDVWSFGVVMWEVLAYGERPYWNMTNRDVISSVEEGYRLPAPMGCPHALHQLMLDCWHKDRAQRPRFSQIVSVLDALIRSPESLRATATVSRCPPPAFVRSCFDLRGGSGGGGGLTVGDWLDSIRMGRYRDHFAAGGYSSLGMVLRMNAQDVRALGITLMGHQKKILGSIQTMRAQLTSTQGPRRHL

SMILES | inhibition [1] | inhibition [2] | inhibition [3] | inhibition [4]
COc1cc(Nc2ccnc3cc(Cl)ccc23)cc(OC)c1OC | 80% | Active | inactive | Active
COc1cc(Nc2ccnc3cc(Br)ccc23)cc(OC)c1OC | 80% | Active | inactive | Active
COc1cc(Nc2ccnc3cc(I)ccc23)cc(OC)c1OC | 80% | Active | inactive | Active
COc1cc(Nc2ccnc3cc(C(F)(F)F)ccc23)cc(OC)c1OC | 80% | Active | inactive | Active
COc1cc(Nc2ccnc3cc(C#N)ccc23)cc(OC)c1OC | 80% | Active | inactive | Active
